Data from ChEMBL document CHEMBL5223182, “Inhibition of HIV-1 Protease by a Boronic Acid with High Oxidative Stability” (ACS Med Chem Lett, 2023).

Legend:
[1] = Oxidative stability in sodium phosphate buffer assessed as observed rate constant; assay type: physicochemical
[2] = Oxidative stability in sodium phosphate buffer assessed as relative rate constant; assay type: physicochemical
[3] = target: T1, Human immunodeficiency virus type 1 protease (Human immunodeficiency virus 1, UniProt Q72874); experiment: Inhibition of HIV-1 protease
[4] = Oxidative stability of compound in PBS by UV visible spectrophotometer analysis; assay type: physicochemical; conditions: buffer
[5] = target: Protease (Human immunodeficiency virus 1, UniProt Q9YQ12, D30N); experiment: Inhibition of HIV-1 protease D30N mutant
Chain of Protease (Q9YQ12 entry or part of it D30N): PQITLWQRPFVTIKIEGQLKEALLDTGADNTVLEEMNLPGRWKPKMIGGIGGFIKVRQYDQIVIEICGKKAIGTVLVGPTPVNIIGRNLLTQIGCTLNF

[6] = target: T1, Human immunodeficiency virus type 1 protease; experiment: Inhibition of HIV-1 protease by fluorescence assay

Ki [6]	SMILES	K [1]	K [2]	Ki [3]	K [4]	Ki [5]
–	CC(C)CN(C[C@@H](O)[C@H](Cc1ccccc1)NC(=O)O[C@H]1CO[C@H]2OCC[C@H]21)S(=O)(=O)c1ccc2c(c1)C(=O)O[B-]2(O)O	0.0026 M⁻¹ s⁻¹	0.021	10 pM	0.00015 M⁻¹ s⁻¹	7 pM
0.5 pM	CC(C)CN(C[C@@H](O)[C@H](Cc1ccccc1)NC(=O)O[C@H]1CO[C@H]2OCC[C@H]21)S(=O)(=O)c1ccc(B(O)O)cc1	0.12 M⁻¹ s⁻¹	1	–	2.4 M⁻¹ s⁻¹	–
